Tests used:
293 cells [1] = test: Cytotoxicity assay - MTT assay after transfection; format: cell-based
Experimental: Glutamine (100 mmol/L) and different transfection reagents (NDT-CP-B-1, NDT-CP-1, Superfect and lipofectamine 2000) were diluted in 0.2% gelatin solution, and 25 μl of the solution containing Glutamine/transfection reagent/gelatin was added into a 96 well plate and allowed to air dry. Then 25 μl GFP plasmid solution in opti MEM (20.0 μg/ml) was added into each well and incubated at room temperature for 25 min. The dried plate was ready for use (FIG. 32).
In this experiment, 0.2% gelatin or 0.2% gelatin and 40.0 μg/ml laminin mixture was used for diluting transfection reagents NDT-CP-B-1, NDT-CP-1, NDT-LP-1 NDT-LP-2, Superfect and lipofectamine 2000, and 25 μl solution was added into 96 well plate. The amounts of NDT polymers used in each well were 8, 4 or 2 μg, respectively, the amounts of Superfect were 15, 7.5 and 3.8 μg/well respectively, and the amounts of lipofectamine 2000 were 2.5, 1.25 and 0.63 μg/well respectively. […] The transfection efficiency and cytotoxicity were analyzed by fluorescent microscope and MTT assay (FIG. 33).
The cytotoxicities of transfection reagents on mammalian cells were evaluated using 3-[4,5 dimethylthiazol-2-yl]-2,5-diphenyltetrazolium bromide (MTT) method. […] The absorbance of the solution was measured at 570 nm. Cell viabilities was calculated using the equation: Viability (%)={Abs570 (sample)/Abs570 (control)}×100 (FIG. 31).

293 cells [2] = test: Effect of membrane disturbing peptide on PLL-laminin mediated gene transfer; format: cell-based; conditions: membrane disturbing peptide in PLL-laminin based transfectable surface, 96-well (FIG. 28)

Molecule: NC(=O)CC[C@H](N)C(=O)O [glutamine, Glutamine]
- effect on transfection cytotoxicity (293 cells [1]; cytoreductive reagent added to transfectable surface, with versus without glutamine (FIG. 32)): significantly improved transfection cytotoxicity

Molecule: RRRQGTWLNPGFPPQSCGYATVTDARRR (Chemically synthesized peptide corresponding to viral envelope protein VSVG) [VSVG peptide]
- effect on transfection efficiency (293 cells [2]): significantly enhance transfection efficiency

Molecule: laminin
- effect on cytotoxicity caused by transfection reagents and procedures (293 cells [1]; cell attaching reagent in transfection reagents-gelatin surface, with versus without laminin (FIG. 33)): significantly improved cytotoxicity

From patent US8192989B2, “Solid surface for biomolecule delivery and high-throughput assay” (Nitto Denko Corporation, priority 2003, dated 2012)
